Experimental findings from US20060275800A1, “Process for characterization of the transactivation and transrepression activity of glucocorticoid receptor ligands in primary immune cells” (priority 2005, published 2006) are described below.

One experiment has as its system MMTV promoter. The experiment is described as follows: MMTV promoter luciferase transactivation assay in HeLa cells. It counts as cell-based, human. An excerpt: The promoter of the mouse mammary tumor virus (MMTV) contains specific binding sites for the activated GR (so-called GREs). This promoter was cloned before a reporter gene (luciferase), and the construct was integrated in a stable manner in the genome of the human cell line HeLa (cervix carcinoma cells). By adding test and reference substances, the MMTV promoter is activated, and the luciferase, whose activity can be detected by means of photometric measurement, is expressed.
(§1) The activities of SEGRA substances in the respective transactivation and transrepression systems are determined in comparison to the activities of the reference substance dexamethasone.

Experiment [1] has as its system tyrosinaminotransferase (TAT). The experiment is described as follows: Induction of tyrosinaminotransferase (TAT) activity in rat hepatoma cells (H4IIE3). The experiment is classed as cell-based. The conditions noted are these: for effectiveness, induction of the TAT activity, % of the maximum dexamethasone effect / EC50: agonism, n=2; for EC50: read-out: power, induction of the TAT activity. On the procedure: In a second transactivation system, the induction of the tyrosinaminotransferase (TAT) by glucocorticoids is determined. In the promoter of the gene for the TAT, GREs are also located, so that this gene is expressed in an enhanced form by binding of the ligand-activated GR. To this end, rat hepatoma cells (H4IIE3) are treated for 24 hours with test and reference substances, and then the TAT activity is determined by photometry. For the two assays, both the detection of agonistic actions of the SEGRA substances in the transactivation and the detection of antagonistic actions in the induction of the parameters by other GR ligands are possible.
as §1

The subject of experiment [2] is transactivation parameters. The experiment in a line: Gene induction in human PBMC (transactivation profile). Conditions: mRNA. It counts as cell-based. As to the method:
(§2) For the mRNA detection, the total RNA was isolated from the respective samples (human PBMC or human whole blood or spleen cells from mice), transcribed in the cDNA and amplified and detected below by means of Real-time TaqMan-PCR (Applied Biosystems). A relative quantification in comparison to the expression of the “house-keeping” gene HPRT was carried out. In each case, the ratio of the result for the GR ligands to the result of the vehicle control is plotted.
Below, by way of example, the application of the characterization of the transactivation and transrepression activity of selective GR ligands by means of gene expression analysis in primary immune cells is shown comparatively based on two SEGRA substances, the agonist in the transactivation, compound 1, and the antagonist in the transactivation, compound 2. The molecular mechanism of these substances had been previously characterized in the usual assays (see 5.2 and 5.3). The gene expression analysis was performed by means of quantitative Real-Time-TaqMan-PCR. The ratios (mean value±standard deviation) of the results for the GR ligands to the results for the vehicle control are shown.
In contrast to this, the different transactivation profile of the SEGRA substances is reflected in differing degrees of gene induction.

The subject of experiment [3] is CD163. The experiment is described as follows: Time-dependent CD163 mRNA expression in human whole-blood cultures. It counts as cell-based. On the procedure: as §2
(§3) For the parameters CD163 and FKBP51, in addition, the time-dependent influence of CR ligands on the mRNA expression in human whole-blood cultures was examined.

For experiment [4], the system named is FKBP51. The experiment is described as follows: Time-dependent FKBP51 mRNA expression in human whole-blood cultures. It counts as cell-based. On the procedure: as §2, §3
Experiment [5] relates to FKBP51. The experiment in a line: In vivo expression of FKBP51 in spleen cells of treated mice. Conditions: after 24 hours. On the procedure:
as §2
(§4) The in vivo regulation of the expression of selected genes was characterized in the spleen cells of SEGRA-treated mice after 24 hours.

Experiment [6] deals with CD163. The experiment is described as follows: In vivo expression of CD163 in spleen cells of treated mice. The conditions noted are these: after 24 hours. As to the method:
as §2, §4

Another experiment deals with GILZ. The experiment is described as follows: In vivo expression of GILZ in spleen cells of treated mice. The conditions noted are these: after 24 hours. On the procedure: as §2, §4
Another experiment has as its system glutamine synthetase. The experiment is described as follows: In vivo expression of glutamine synthetase in spleen cells of treated mice. Conditions: after 24 hours. On the procedure:
as §2, §4

In experiment [7] the test system is CD163. The experiment is described as follows: In vitro mRNA expression of CD163 (transactivation parameter) in unstimulated human PBMC cultures. It counts as cell-based. The conditions noted are these: for Transactivation vs. Prednisolone CD163: mRNA, PBMC cultures, GR-ligand/prednisolone quotient.
From the text: (§5) Regarding the definition of suitable parameters, the regulation, mediated by standard glucocorticoids and selective GR ligands, of more than 50 genes in primary human immune cells was examined in a broad screening approach. Selected genes were further characterized in vitro and in vivo in kinetic experiments. […] Decisive criteria for the parameter selection were 1) the consistent reflection of transactivation or transrepression properties of GR ligands, 2) the detection of the regulation in non-stimulated immune cells, and 3) the quick reaction of the gene expression in in vitro assays (the 4-hour time period was used for the screening), and the good and enduring detectability after in vivo application of GR ligands. These properties make it likely that a direct regulation of the gene expression by the GR ligands will take place and that the parameters will be usable in in vivo studies (e.g., as biomarkers).
(§6) To have a comparison with a standard GK, the GR-ligand-influenced gene expressions for these parameters were normalized to the gene expression after treatment with the standard GK, prednisolone. […] It is clear to one skilled in the art that the normalization could also in principle be related to any other glucocorticoid.
(§7) For gene suppression, the “prednisolone/GR ligand” quotient was derived for purposes of normalization, i.e., a lower value (<1) indicates a relatively weaker suppression by the GR ligands (higher values in the residual gene expression).
as §2

In experiment [8] the test system is FKBP51. The experiment is described as follows: In vitro mRNA expression of FKBP51 (transactivation parameter) in unstimulated human PBMC cultures. The experiment is classed as cell-based. The conditions noted are these: for Transactivation vs. Prednisolone FKBP51: mRNA, PBMC cultures, GR-ligand/prednisolone quotient.
From the text: as §5, §6, §7, §2

The next experiment relates to IL-1β. The experiment in a line: In vitro mRNA expression of IL-1β (transrepression parameter) in unstimulated human PBMC cultures. Conditions: for Transrepression vs. Prednisolone IL-1β: mRNA, PBMC cultures, prednisolone/GR ligand quotient. The experiment is classed as cell-based.
From the text: as §5, §6, §7, §2

Another experiment has as its system TNF-α. The experiment is described as follows: In vitro mRNA expression of TNF-α (transrepression parameter) in unstimulated human PBMC cultures. It counts as cell-based. Conditions: for Transrepression vs. Prednisolone TNF-α: mRNA, PBMC cultures, prednisolone/GR ligand quotient.
From the text: as §5, §6, §7, §2

The test system of the next experiment is inflammatory cytokines. The experiment is described as follows: In vivo expression of inflammatory cytokines in spleen cells of treated mice. Conditions: after 24 hours, vs vehicle control. On the procedure:
as §2, §4

Setting [9] is: human PBMC cultures, antagonism.
[10] abbreviates: human PBMC cultures, single substance.

For the compound `Cc1noc(=O)c2ccc(NC(=O)C(O)(CC(C)(C)c3cccc4c3OCO4)C(F)(F)F)cc12` (centres unmarked) [compound 1], the “antagonistic effect in the MMTV promoter assay (in words)” value in the experiment with MMTV promoter is recorded as “antagonistic effect neither”. Moreover, the EC50 in the experiment on MMTV promoter (Homo sapiens, agonism, n=2, read-out: power, induction of the activity of the MMTV promoter) amounted to 0.01 ± 0.0014 µM. In the experiment with MMTV promoter (agonism, n=2), the “effectiveness, induction of the MMTV promoter, % of the maximum dexamethasone effect” value amounted to 73±2.8%. Moreover, in experiment [1] (rat hepatoma cells), the “effectiveness, induction of the TAT activity, % of the maximum dexamethasone effect” value is 86±12.7% and the EC50 came out at 0.0057 ± 0.0006 µM. Moreover, the gene induction entry in experiment [2] is reported as “clearly induces”. The “time-dependent influence on CD163 mRNA expression” value in the experiment with CD163 [3] was “induced the expression of these genes permanently”. Besides, the “time-dependent influence on FKBP51 mRNA expression” value in the experiment with FKBP51 [4] was “induced the expression of these genes permanently”. Moreover, in the experiment on FKBP51 [5], the “expression of FKBP51” value is “clear induction”. Moreover, the “expression of CD163” value in the experiment on CD163 [6] is “clear induction”. In the experiment on GILZ, the “expression of GILZ” value is recorded as “clear induction”. In the experiment with glutamine synthetase, the “expression of glutamine synthetase” value is “clear induction”.
With `Cc1noc(=O)c2ccc(NC(=O)C(O)(CC(C)(C)c3cc(F)ccc3C(F)(F)F)C(F)(F)F)cc12` (centres unmarked) [compound 2], the “CD163 expression in all batches” value with CD163 [7] (human PBMC cultures, alone and with prednisolone) was “reduced”. Further, in the experiment on CD163 [7] (setting [9]), the “induction of CD163 on simultaneous administration with prednisolone, in comparison to prednisolone alone” value is recorded as “clearly lower”. Besides, the “induction of CD163 (in words)” value with CD163 [7] (setting [10]) was “not”. In addition, the “induction of FKBP51 on simultaneous administration with prednisolone, in comparison to prednisolone alone” value in the experiment with FKBP51 [8] (setting [9]) is given as “clearly lower”. Also, the “suppression of the mRNA expression of IL-1β (in words)” value with IL-1β (setting [10]) is given as “suppression”. Further, the “suppression of the mRNA expression of TNF-α (in words)” value with TNF-α (setting [10]) is “suppression”. The “antagonistic effect in the MMTV promoter assay (in words)” value in the experiment on MMTV promoter is “clear antagonist”. Also, the IC50 in the experiment on MMTV promoter (Homo sapiens, antagonism, n=3, read-out: power, antagonism of the MMTV promoter activity induced by dexamethasone) is 0.085 ± 0.012 µM. Besides, the “effectiveness, antagonism of dexamethasone-induced MMTV promoter activity, % of the maximum effect of the GR antagonist RU 486” value in the experiment with MMTV promoter (antagonism, n=3) is 119±3.6%. The Emax in experiment [1] (Rattus norvegicus, at a concentration of 1 μmol, read-out: antagonism of the dexamethasone-induced TAT activity, % of the maximum effect of RU 486) is 35%. Besides, in [1] (rat hepatoma cells), the “effectiveness, induction of the TAT activity, % of the maximum dexamethasone effect” value amounted to 43.5±10.6%; the EC50 was 0.067 ± 0.01 µM; the “behaviour in the TAT promoter (in words)” value was “partial agonist”. In addition, the gene induction entry in experiment [2] was “lower gene induction or no gene induction”. Further, the “time-dependent influence on CD163 mRNA expression” value in the experiment on CD163 [3] is “did not lead to the increase of the gene expression”. Besides, in the experiment on FKBP51 [4], the “time-dependent influence on FKBP51 mRNA expression” value was “did not lead to the increase of the gene expression”. Moreover, the “inhibition of the inflammatory cytokines (transrepression)” value with inflammatory cytokines is given as “less pronounced”. In addition, the “expression of FKBP51” value in the experiment with FKBP51 [5] is recorded as “reduces the expression”. Moreover, the “expression of CD163” value with CD163 [6] was “reduces the expression”. The “expression of GILZ” value in the experiment on GILZ is given as “reduces the expression”. The “expression of glutamine synthetase” value in the experiment with glutamine synthetase was “reduces the expression”.
Take `C[C@@H]1C[C@H]2[C@@H]3CCC4=CC(=O)C=C[C@]4(C)[C@@]3(F)[C@@H](O)C[C@]2(C)[C@@]1(O)C(=O)CO` [Dexamethasone, dexamethasone]: the “Transactivation vs. Prednisolone CD163” value with CD163 [7] (1 hour) is 1.02; with CD163 [7] (2 hours) it was 1.89; in the experiment on CD163 [7] (4 hours), 1.34; in the experiment on CD163 [7] (12 hours) it was 1.13; in the experiment on CD163 [7] (24 hours) it was 1.04. For the same compound, the “Transactivation vs. Prednisolone FKBP51” value with FKBP51 [8] (1 hour) was 0.89; with FKBP51 [8] (2 hours), 1.13; in the experiment on FKBP51 [8] (4 hours), 1.08; with FKBP51 [8] (12 hours) it was 1.07; in the experiment on FKBP51 [8] (24 hours), 1.05. Further, the “Transrepression vs. Prednisolone IL-1β” value in the experiment on IL-1β (1 hour) stood at 0.61; with IL-1β (2 hours), 0.69; with IL-1β (4 hours), 1.27; with IL-1β (12 hours), 0.96; in the experiment on IL-1β (24 hours), 1.16. Moreover, the “Transrepression vs. Prednisolone TNF-α” value in the experiment with TNF-α (1 hour) stood at 0.80; with TNF-α (2 hours), 0.85; with TNF-α (4 hours), 1.01; in the experiment on TNF-α (12 hours) it was 1.00; with TNF-α (24 hours) it was 0.97.
